Data on 23 compounds can be found in US11066392B2, “Inhibitors of indoleamine 2,3-dioxygenase and methods of their use” (BRISTOL-MYERS SQUIBB COMPANY, priority 2017, dated 2021).

Molecules are shown by their SMILES. A value given as a limit tells only on which side of the number the result lay.

The target of the first experiment is indoleamine 2,3-dioxygenase (IDO) (Homo sapiens, UniProt P14902). Kind of experiment: HeLa cell-based indoleamine 2,3-dioxygenase (IDO) assay (kynurenine production, IFNγ-stimulated). To be noted: HeLa cells, IFNγ 25 ng/mL, 48 hour incubation; read-out: IDO Hela IC50. How it is done: Assessment of inhibitor activity in HeLa cell-based indoleamine 2,3-dioxygenase (IDO) assay. HeLa (ATCC® CCL-2) cells were obtained from the ATCC® and cultured in Dulbecco's Modified Eagle Medium supplemented with 4.5 g/L glucose, 4.5 […] sodium pyruvate (#10-013-CV, Corning), 2 mM L-alanyl-L-glutamine dipeptide (#35050-061, Gibco), 100U/mL penicillin, 100 μg/mL streptomycin (#SV30010, HyClone) and 10% fetal bovine serum (#SH30071.03 HyClone). Cells were maintained in a humidified incubator at 37° C. in 5% CO2. […] After 24 hours, the media was aspirated and replaced with media containing IFNγ (#285-IF/CF, R&D Systems) at a final concentration of 25 ng/mL. A serial dilution of each test compound was added to the cells in a total volume of 200 μL of culture medium. After a further 48 hour incubation, 170 μL of supernatant was transferred from each well to a fresh 96-well plate. 12.1 μL of 6.1N trichloroacetic acid (#T0699, Sigma-Aldrich) was added to each well and mixed, followed by incubation at 65° C. for 20 minutes to hydrolyze N-formylkynurenine, the product of indoleamine 2,3-dioxygenase, to kynurenine. The reaction mixture was then centrifuged for 10 mins at 500×g to sediment the precipitate. 100 μL of the supernatant was transferred from each well to a fresh 96-well plate. 100 μl of 2% (w/v) p-dimethylaminobenzaldehyde (#15647-7, Sigma-Aldrich) in acetic acid (#A6283, Sigma-Aldrich) was added to each well mixed and incubated at room temperature for 20 mins. Kynurenine concentrations were determined by measuring absorbance at 480 nm and calibrating against an L-kynurenine (#K8625, Sigma-Aldrich) standard curve using a SPECTRAMAX® M2e microplate reader (Molecular Devices). The percentage activity at each inhibitor concentration was determined and IC50 values assessed using nonlinear regression. Activity for compounds described herein is provided in Table 1, wherein potency levels are provided as follows: (Potency: IDO IC50: […])
Sequence of indoleamine 2,3-dioxygenase (IDO) (P14902 whole entry): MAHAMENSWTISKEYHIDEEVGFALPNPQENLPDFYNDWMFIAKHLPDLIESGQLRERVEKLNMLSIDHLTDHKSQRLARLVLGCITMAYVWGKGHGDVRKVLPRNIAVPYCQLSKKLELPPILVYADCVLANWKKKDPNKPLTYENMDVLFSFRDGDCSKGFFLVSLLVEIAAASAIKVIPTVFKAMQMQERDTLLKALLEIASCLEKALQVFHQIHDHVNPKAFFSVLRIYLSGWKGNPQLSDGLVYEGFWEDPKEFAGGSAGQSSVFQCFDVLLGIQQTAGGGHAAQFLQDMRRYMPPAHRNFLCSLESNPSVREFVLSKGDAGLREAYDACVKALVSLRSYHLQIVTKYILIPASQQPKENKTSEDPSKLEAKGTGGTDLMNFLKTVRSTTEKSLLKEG
The term IC50 denotes the concentration at which inhibition is half-maximal. In the case of `CCC(NC(=O)c1ccc(OC)nc1)C1CCC(c2ccnc3cc(C(F)(F)F)ccc23)CC1` (single isomer, unassigned) [Example 19b, 6-Methoxy-N-(1-((1s,4s)-4-(7-(trifluoromethyl)quinolin-4-yl)cyclohexyl)propyl)nicotinamide], the IC50 turned out to be 10 nM.
Take `CC[C@@H](NC(=O)c1ccc(OC)nc1)[C@H]1CC[C@@H](c2cnc3ccccc3c2)CC1` (single isomer, unassigned) [Example 20a, 6-Methoxy-N-(1-(4-(quinolin-3-yl)cyclohexyl)propyl)nicotinamide]: the IC50 is 250 nM.
On the same count and under the same terms, the same measure for `CC[C@@H](NC(=O)c1ccc(OC)nc1)[C@H]1CC[C@@H](c2cnc3ccccc3c2)CC1` (single isomer, unassigned) [Example 20c, 6-Methoxy-N-(1-(4-(quinolin-3-yl)cyclohexyl)propyl)nicotinamide]: 240 nM; for `CC[C@@H](NC(=O)c1ccc(OC)nc1)[C@H]1CC[C@@H](c2cnc3ccccc3c2)CC1` (single isomer, unassigned) [Example 20d, 6-Methoxy-N-(1-(4-(quinolin-3-yl)cyclohexyl)propyl)nicotinamide]: 60 nM; for `CC[C@@H](NC(=O)c1cnc(OC)nc1)[C@H]1CC[C@@H](c2ccnc(OC)c2F)CC1` (single isomer, unassigned) [Example 21d, N-(1-(4-(3-Fluoro-2-methoxypyridin-4-yl)cyclohexyl)propyl)-2-methoxypyrimidine-5-carboxamide]: 380 nM.
Still for that read-out and setting: the same measure for `CCC(NC(=O)c1ccc(OC)nc1)C1CCC(c2ccnc(OC)c2C(F)F)CC1` (single isomer, unassigned) [Example 24b, N-(1-((1s,4s)-4-(3-(Difluoromethyl)-2-methoxypyridin-4-yl)cyclohexyl)propyl)-6-methoxynicotinamide]: 900 nM; for `CCC(NC(=O)c1cnc(OC)nc1)[C@H]1CC[C@@H](c2ccnc(OC)c2C(F)F)CC1` (single isomer, unassigned) [Example 25b, N-(1-((1s,4s)-4-(3-(Difluoromethyl)-2-methoxypyridin-4-yl)cyclohexyl)propyl)-2-methoxypyrimidine-5-carboxamide]: 10 nM; for `CCC(NC(=O)c1ccnc(N2CCOCC2)c1)C1CCC(c2ccnc(OC)c2C(F)F)CC1` (single isomer, unassigned) [Example 26b, N-(1-((1s,4s)-4-(3-(Difluoromethyl)-2-methoxypyridin-4-yl)cyclohexyl)propyl)-2-morpholinoisonicotinamide]: 10 nM.
Same read-out and setting: the same measure for `CCC(NC(=O)c1ccc(OC)nc1)C1CCC(c2ccnc(F)c2C)CC1` (single isomer, unassigned) [Example 27a, N-(1-((1s,4s)-4-(2-Fluoro-3-methylpyridin-4-yl)cyclohexyl)propyl)-6-methoxynicotinamide]: 490 nM; for `CCC(NC(=O)c1ccc(OC)nc1)C1CCC(c2ccnc(OC)c2C)CC1` (single isomer, unassigned) [Example 28a, 6-Methoxy-N-(1-((1s,4s)-4-(2-methoxy-3-methylpyridin-4-yl)cyclohexyl)propyl)nicotinamide]: 540 nM.
On to `CCC(NC(=O)c1ccc(N)nc1)[C@H]1CC[C@@H](c2ccnc(OC)c2C)CC1` (single isomer, unassigned) [Example 29b, 6-Amino-N-(1-((1s,4s)-4-(2-methoxy-3-methylpyridin-4-yl)cyclohexyl)propyl)nicotinamide], for which the concentration for half-maximal inhibition (IC50) stood at 10 nM.
On the same count and under the same terms, the result for `CCC(NC(=O)c1ccc(OC)nc1)C1CCC(c2ccnc(OC(F)F)c2)CC1` (single isomer, unassigned) [Example 30b, N-(1-(4-(2-(Difluoromethoxy)pyridin-4-yl)cyclohexyl)propyl)-6-methoxynicotinamide] reads 20 nM.
With `CCC(NC(=O)c1ccc(OC)nc1)C1CCC(c2ccnc(OC(F)F)c2)CC1` (single isomer, unassigned) [Example 30d, N-(1-(4-(2-(Difluoromethoxy)pyridin-4-yl)cyclohexyl)propyl)-6-methoxynicotinamide], the IC50 is 250 nM.
On the same count and under the same terms, the result for `CC[C@@H](NC(=O)c1ccc(OC)nc1)[C@H]1CC[C@@H](c2ccn(C)c(=O)c2)CC1` (single isomer, unassigned) [Example 31b, 6-Methoxy-N-(1-(4-(1-methyl-2-oxo-1,2-dihydropyridin-4-yl)cyclohexyl)propyl)nicotinamide] reads 970 nM; that for `CC[C@@H](NC(=O)c1ccc(OC)nc1)[C@H]1CC[C@@H](c2ccn(C)c(=O)c2)CC1` (single isomer, unassigned) [Example 31c, 6-Methoxy-N-(1-(4-(1-methyl-2-oxo-1,2-dihydropyridin-4-yl)cyclohexyl)propyl)nicotinamide], 190 nM.

The same experiment, now with this note: HeLa cells; potency class; read-out: Patent Potency Hela IC50 A < 10 nM, B > 10 nM, C > 100 nM.
On to `CC[C@@H](NC(=O)c1ccc(OC)nc1)[C@H]1CC[C@@H](c2cnc3ccccc3c2)CC1` (single isomer, unassigned) [Example 20b, 6-Methoxy-N-(1-(4-(quinolin-3-yl)cyclohexyl)propyl)nicotinamide], for which the 50% inhibitory concentration (IC50) is > 100 nM.
As to `CC[C@@H](NC(=O)c1cnc(OC)nc1)[C@H]1CC[C@@H](c2ccnc(OC)c2F)CC1` (single isomer, unassigned) [Example 21c, N-(1-(4-(3-Fluoro-2-methoxypyridin-4-yl)cyclohexyl)propyl)-2-methoxypyrimidine-5-carboxamide], the half-maximal inhibitory concentration (IC50) is > 100 nM.
The same measure, in the same setting: the result for `CCC(NC(=O)c1ccc(OC)nc1)C1CCC(c2ccnc(OC)c2C(F)F)CC1` (single isomer, unassigned) [Example 24a, N-(1-((1s,4s)-4-(3-(Difluoromethyl)-2-methoxypyridin-4-yl)cyclohexyl)propyl)-6-methoxynicotinamide] reads < 10 nM; that for `CCC(NC(=O)c1ccnc(N2CCOCC2)c1)C1CCC(c2ccnc(OC)c2C(F)F)CC1` (single isomer, unassigned) [Example 26a, N-(1-((1s,4s)-4-(3-(Difluoromethyl)-2-methoxypyridin-4-yl)cyclohexyl)propyl)-2-morpholinoisonicotinamide], > 100 nM.
Consider `CCC(NC(=O)c1ccc(OC)nc1)C1CCC(c2ccnc(F)c2C)CC1` (single isomer, unassigned) [Example 27b, N-(1-((1s,4s)-4-(2-Fluoro-3-methylpyridin-4-yl)cyclohexyl)propyl)-6-methoxynicotinamide], for which the IC50 was < 10 nM.
Same read-out and setting: the same measure for `CCC(NC(=O)c1ccc(OC)nc1)C1CCC(c2ccnc(OC)c2C)CC1` (single isomer, unassigned) [Example 28b, 6-Methoxy-N-(1-((1s,4s)-4-(2-methoxy-3-methylpyridin-4-yl)cyclohexyl)propyl)nicotinamide]: < 10 nM; for `CC[C@@H](NC(=O)c1ccc(OC)nc1)[C@H]1CC[C@@H](c2ccn(C)c(=O)c2)CC1` (single isomer, unassigned) [Example 31a, 6-Methoxy-N-(1-(4-(1-methyl-2-oxo-1,2-dihydropyridin-4-yl)cyclohexyl)propyl)nicotinamide]: > 100 nM.
Same read-out and setting: the same measure for `CC[C@@H](NC(=O)c1ccc(OC)nc1)[C@H]1CC[C@@H](c2ccn(C)c(=O)c2)CC1` (single isomer, unassigned) [Example 31d, 6-Methoxy-N-(1-(4-(1-methyl-2-oxo-1,2-dihydropyridin-4-yl)cyclohexyl)propyl)nicotinamide]: > 100 nM.
